Data as given in PMC3920478, “Small molecule-mediated refolding and activation of myosin motor function” (eLife, 2014).

Columns and labels:
[1] = target: T1, Dd myosin-5b motor domain (Dictyostelium discoideum, UniProt P54697); assay: Steady-state basal and actin-activated Mg2+-ATPase (NADH-coupled assay); format: biochemical
T1 construct: Dd myosin-5b motor domain; His tag; made in house; host or cells: Dictyostelium discoideum AX3-ORF+ cells
T1 sequence (P54697 1-821 limits assumed): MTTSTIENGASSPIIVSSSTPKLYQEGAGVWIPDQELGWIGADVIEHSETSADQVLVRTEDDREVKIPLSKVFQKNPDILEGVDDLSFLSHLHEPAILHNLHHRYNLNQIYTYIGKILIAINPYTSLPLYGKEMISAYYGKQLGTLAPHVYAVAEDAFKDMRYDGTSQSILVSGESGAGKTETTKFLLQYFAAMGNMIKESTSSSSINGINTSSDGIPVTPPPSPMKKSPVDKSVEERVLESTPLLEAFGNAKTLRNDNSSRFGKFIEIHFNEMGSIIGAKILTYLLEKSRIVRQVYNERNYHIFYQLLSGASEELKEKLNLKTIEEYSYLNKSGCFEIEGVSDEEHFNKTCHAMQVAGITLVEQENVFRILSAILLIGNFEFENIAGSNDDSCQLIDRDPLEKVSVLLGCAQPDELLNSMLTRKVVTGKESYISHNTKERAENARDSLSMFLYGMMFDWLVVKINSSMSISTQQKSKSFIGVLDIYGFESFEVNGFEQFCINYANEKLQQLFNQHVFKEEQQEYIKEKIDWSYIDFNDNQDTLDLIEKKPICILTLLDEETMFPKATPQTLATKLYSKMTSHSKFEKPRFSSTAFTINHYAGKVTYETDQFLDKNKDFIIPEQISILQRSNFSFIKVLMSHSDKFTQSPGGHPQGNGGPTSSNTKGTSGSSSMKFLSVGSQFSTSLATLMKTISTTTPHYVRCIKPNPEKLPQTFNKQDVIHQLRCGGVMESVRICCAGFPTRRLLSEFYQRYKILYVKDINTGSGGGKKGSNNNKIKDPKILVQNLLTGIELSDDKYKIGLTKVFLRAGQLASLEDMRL
Experimental: Proteolytic fragments were further purified by actin-coprecipitation.
Basal and actin-activated Mg^2+-ATPase activities were measured using the NADH-coupled assay described previously ([Furch et al., 1998]) adapted for higher throughput screens for a temperature controlled plate reader (Multiscan FC, Thermo Scientific, Waltham, MA) at 25°C. EMD 57033 was added to the reaction mixture in the absence of nucleotide and incubated before the reaction was started by the addition of ATP. Control measurements were carried out in the absence of drug, as well as in the presence of according concentrations of the non-binding (−)-enantiomer EMD 57439 to account for possible absorption effects. […] Data points are mean values from 3 to 5 independent experiments. Error bars indicate standard deviations.

Dd myosin-2 motor domain = target: T2, Dd myosin-2 motor domain (Dictyostelium discoideum, UniProt P08799); assay: In vitro motility assay (actin filament sliding); format: biochemical
T2 sequence (P08799 1-761 limits assumed): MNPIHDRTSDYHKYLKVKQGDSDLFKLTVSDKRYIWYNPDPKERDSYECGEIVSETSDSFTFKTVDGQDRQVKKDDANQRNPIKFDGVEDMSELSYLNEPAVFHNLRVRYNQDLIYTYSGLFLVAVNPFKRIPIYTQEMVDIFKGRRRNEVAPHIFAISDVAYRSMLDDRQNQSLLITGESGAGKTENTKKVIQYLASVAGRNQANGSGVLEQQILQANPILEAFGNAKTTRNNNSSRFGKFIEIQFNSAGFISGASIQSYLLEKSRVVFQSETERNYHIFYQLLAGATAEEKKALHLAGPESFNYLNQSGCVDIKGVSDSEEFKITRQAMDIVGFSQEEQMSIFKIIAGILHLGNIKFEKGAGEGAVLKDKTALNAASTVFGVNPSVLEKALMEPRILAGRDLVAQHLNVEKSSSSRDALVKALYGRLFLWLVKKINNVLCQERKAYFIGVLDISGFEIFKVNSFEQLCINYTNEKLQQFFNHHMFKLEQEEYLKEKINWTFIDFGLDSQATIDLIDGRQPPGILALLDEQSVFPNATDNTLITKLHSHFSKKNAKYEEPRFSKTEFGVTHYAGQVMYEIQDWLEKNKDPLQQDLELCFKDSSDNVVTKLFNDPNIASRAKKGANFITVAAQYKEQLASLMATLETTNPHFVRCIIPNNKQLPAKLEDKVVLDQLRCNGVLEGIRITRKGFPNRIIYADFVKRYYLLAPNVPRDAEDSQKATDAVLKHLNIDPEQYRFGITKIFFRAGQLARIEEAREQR
Excerpt: In addition, the fraction of moving filaments increased from <75% to >95%. […] In initial experiments, we determined the minimal concentration of α-actinin molecules that generate sufficient load to stall the movement of actin filaments for a given surface density of myosin heads. […] Next, we generated in vitro motility flow cells with actin filaments held at stall force. […] The time-dependence of the recovery of motile activity is best fit by a hyperbola. A plateau value of 0.4 μm s^−1 is reached after more than 2 hr (Figure 1G).
Actin-sliding motility was performed at 20°C using an Olympus IX81 (Olympus, Hamburg, Germany) inverted fluorescence microscope as described previously ([Fujita-Becker et al., 2005]). Average sliding velocities were determined from the Gaussian distribution of automatically tracked actin filaments using DiaTrack 3.01 (Semasopht, Chavannes, Switzerland) and Origin 7.0 (OriginLab Corporation, Northampton, MA). Errors indicate standard deviations.

[2] = target: T3, β-cardiac myosin motor domain (Sus scrofa, UniProt P79293); assay: Melting temperature by circular dichroism at 222 nm; set-up: species or system Porcine; conditions: nucleotide-free, low salt, 100 µM (saturating) EMD 57033
T3 construct: Melting curves of the β-cardiac myosin motor domain as determined by circular dichroism spectroscopy at 222 nm; from tissue; host or cells: porcine cardiac muscle
T3 sequence (P79293 1-843 limits assumed): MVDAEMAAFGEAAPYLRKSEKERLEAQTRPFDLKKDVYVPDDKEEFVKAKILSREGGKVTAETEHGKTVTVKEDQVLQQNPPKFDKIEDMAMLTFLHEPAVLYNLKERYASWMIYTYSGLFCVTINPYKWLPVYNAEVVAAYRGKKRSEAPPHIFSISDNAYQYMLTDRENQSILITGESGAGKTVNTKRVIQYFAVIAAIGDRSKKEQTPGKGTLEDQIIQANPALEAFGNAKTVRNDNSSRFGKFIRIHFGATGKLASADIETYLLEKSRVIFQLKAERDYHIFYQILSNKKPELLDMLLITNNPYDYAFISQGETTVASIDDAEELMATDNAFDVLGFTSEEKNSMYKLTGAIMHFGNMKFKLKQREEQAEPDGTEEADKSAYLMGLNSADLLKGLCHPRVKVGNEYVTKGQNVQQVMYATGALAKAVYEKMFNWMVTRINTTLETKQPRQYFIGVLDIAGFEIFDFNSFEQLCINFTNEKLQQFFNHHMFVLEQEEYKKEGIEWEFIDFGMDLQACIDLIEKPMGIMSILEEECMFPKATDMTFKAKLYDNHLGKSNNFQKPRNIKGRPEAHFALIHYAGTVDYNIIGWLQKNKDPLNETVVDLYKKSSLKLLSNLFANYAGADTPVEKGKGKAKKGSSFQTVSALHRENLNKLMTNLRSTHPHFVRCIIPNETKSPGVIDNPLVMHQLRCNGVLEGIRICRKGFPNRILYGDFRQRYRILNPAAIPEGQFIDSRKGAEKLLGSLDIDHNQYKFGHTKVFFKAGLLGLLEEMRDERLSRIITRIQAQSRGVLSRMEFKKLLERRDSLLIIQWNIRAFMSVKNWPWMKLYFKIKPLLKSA
Experimental: Circular dichroism and differential static light scattering experiments were performed to determine Tm.
Protein solutions were diluted to a concentration of 0.3 mg/ml in a buffer containing 5 mM KPi pH 7.5, 15 mM KCl. Denaturation of β-cardiac myosin was measured by monitoring the temperature-dependent changes of ellipticity at 222 nm in a temperature controlled π*-180 Spectrometer equipped with a circular dichroism unit (Applied Photophysics, Leatherhead, UK). Measurements were performed in a 0.3-cm path length Quartz cuvette with a temperature gradient of 1°C min^−1. The transition midpoint of the unfolding reaction was calculated by fitting a Boltzmann function to the experimental data. Prior to measurements, the storage buffer of β-cardiac myosin that contains DTT and sucrose were exchanged using PD MiniTrap G-25 (GE Healthcare, Little Chalfont, UK) size exclusion columns equilibrated with CD Buffer (5 mM KPi pH 7.5, 15 mM KCl).

dogs with heart failure = test system: dogs with heart failure; set-up: method as in Senzaki et al., 2000; conditions: ref Senzaki et al., 2000; cited from earlier work

## COc1ccc(C(=O)N2CCCc3cc(C4=NNC(=O)SC4C)ccc32)cc1OC (centres unmarked) [EMD 57033]
[1]
  AC50: 35.4 µM
  Activation potency relative to β-cardiac myosin (weaker): fivefold
  Normalized maximal ATPase activation (basal): 1.4
[1]; 30 µM actin
  Normalized maximal ATPase activation (with 30 µM actin): 1.6
Dd myosin-2 motor domain; 100 µM EMD 57033
  Increase of actin filament sliding velocity: 1.6 fold
Dd myosin-2 motor domain; in presence of 100 µM EMD 57033
  Average sliding velocity of actin filaments: 1.35 ± 0.2 µm s^−1
[2]
  Tm (melting temperature): 53.6 ± 1.9 °C
Dogs with heart failure
  Haemodynamic effects in failing heart: potent positive inotropic effects, reduced oxygen cost of contraction, and enhanced diastolic chamber performance
